From ChEMBL document CHEMBL1201862, “PubChem BioAssay data set” (2004)
Active and inactive are the calls of the source.

Tests used:
[1] = molecular target: T1, Hexokinase HKDC1 (Homo sapiens, UniProt Q2TB90); test: HKDC1 hexokinase inhibitors, dose response, biochemical, W721R variant (AID 504729); assay type: functional
T1 sequence (Q2TB90 whole entry): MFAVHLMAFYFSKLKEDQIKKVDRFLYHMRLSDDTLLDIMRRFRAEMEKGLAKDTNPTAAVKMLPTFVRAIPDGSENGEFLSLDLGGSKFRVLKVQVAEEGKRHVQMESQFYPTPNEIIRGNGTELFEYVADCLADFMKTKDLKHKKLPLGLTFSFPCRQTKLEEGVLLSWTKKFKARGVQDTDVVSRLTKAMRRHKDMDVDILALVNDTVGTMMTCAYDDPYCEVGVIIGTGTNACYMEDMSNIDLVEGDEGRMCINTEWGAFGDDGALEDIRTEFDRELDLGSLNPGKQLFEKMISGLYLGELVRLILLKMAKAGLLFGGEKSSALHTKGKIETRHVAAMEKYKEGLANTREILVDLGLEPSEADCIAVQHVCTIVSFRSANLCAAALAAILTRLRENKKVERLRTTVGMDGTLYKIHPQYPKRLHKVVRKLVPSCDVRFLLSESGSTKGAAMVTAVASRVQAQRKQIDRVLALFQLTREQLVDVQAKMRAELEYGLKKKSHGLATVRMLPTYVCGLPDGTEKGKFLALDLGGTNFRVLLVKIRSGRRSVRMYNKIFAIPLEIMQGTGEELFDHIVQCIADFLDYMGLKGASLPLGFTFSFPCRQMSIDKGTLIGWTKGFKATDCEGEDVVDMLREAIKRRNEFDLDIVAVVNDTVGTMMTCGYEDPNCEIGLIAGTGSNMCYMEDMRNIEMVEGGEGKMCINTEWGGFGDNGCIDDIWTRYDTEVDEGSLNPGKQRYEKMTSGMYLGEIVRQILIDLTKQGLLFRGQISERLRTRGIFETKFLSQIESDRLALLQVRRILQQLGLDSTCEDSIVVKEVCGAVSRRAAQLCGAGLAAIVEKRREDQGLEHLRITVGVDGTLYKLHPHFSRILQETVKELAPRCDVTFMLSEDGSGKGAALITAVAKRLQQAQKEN

[2] = A cytotoxicity screen of small molecule inhibitors of the PhoP region in Salmonella typhi identified in the primary screen. [Related pubchem assays: 1850, 1864, 1985 ]; assay type: functional
[3] = molecular target: DNA dC->dU-editing enzyme APOBEC-3G (Homo sapiens, UniProt Q9HC16); test: Dose Response confirmation of small molecule APOBEC3G DNA Deaminase Inhibitors via a fluorescence-based single-stranded DNA deaminase assay. [Related pubchem assays (depositor defined):AID493012, AID493028]; assay type: functional
[4] = inhibitors of firefly luciferase expression or activity, dose response, H4 neuroglioma cells, luminescence (AID 1990); assay type: functional, cell-based
[5] = Luminescence Cell-Based Dose Response HTS to Identify Inhibitors of 5'UTR Stem-Loop Driven Prion Protein mRNA Translation in H4 Neuroglioblastoma Cells. [Related pubchem assays: 1827 (Project Summary), 1813 (Primary HTS)]; assay type: functional
[6] = molecular target: T2, Replicative DNA helicase DnaB (Mycobacterium tuberculosis, UniProt P9WMR3); test: DnaB intein splicing inhibitors, dose response, biochemical, cell-free fluorescence (AID 449749); assay type: functional
T2 sequence (P9WMR3 whole entry): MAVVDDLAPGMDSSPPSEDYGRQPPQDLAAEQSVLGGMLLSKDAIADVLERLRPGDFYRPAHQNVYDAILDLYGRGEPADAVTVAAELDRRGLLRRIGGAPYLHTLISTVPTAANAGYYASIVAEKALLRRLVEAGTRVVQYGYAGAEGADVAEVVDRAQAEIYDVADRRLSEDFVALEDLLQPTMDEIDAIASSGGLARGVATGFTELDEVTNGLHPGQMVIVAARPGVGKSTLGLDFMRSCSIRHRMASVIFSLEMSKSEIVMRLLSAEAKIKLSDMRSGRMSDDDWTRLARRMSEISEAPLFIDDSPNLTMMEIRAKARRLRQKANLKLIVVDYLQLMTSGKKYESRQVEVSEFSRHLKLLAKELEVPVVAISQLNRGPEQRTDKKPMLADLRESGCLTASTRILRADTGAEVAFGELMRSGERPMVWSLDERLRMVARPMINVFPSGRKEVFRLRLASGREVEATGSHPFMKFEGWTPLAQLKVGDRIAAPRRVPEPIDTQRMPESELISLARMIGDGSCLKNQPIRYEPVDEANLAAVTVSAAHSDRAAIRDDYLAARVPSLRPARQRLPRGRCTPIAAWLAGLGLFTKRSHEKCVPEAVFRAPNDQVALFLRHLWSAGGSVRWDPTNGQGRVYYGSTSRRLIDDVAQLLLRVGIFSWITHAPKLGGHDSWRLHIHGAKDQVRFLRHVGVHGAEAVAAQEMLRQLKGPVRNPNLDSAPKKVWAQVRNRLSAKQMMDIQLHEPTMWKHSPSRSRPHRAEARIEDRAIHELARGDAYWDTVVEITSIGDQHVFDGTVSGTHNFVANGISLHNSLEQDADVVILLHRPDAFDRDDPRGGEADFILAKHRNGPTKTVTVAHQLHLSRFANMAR

[7] = molecular target: T3, Protein RecA (Mycobacterium tuberculosis, UniProt P9WHJ3); test: Fluorescence Cell-Free Homogeneous Dose Retest to Identify Inhibitors of RecA-Intein Splicing Activity. [Related pubchem assays (depositor defined):AID2097, AID2223, AID489010, AID492950]; assay type: functional
T3 sequence (P9WHJ3 whole entry): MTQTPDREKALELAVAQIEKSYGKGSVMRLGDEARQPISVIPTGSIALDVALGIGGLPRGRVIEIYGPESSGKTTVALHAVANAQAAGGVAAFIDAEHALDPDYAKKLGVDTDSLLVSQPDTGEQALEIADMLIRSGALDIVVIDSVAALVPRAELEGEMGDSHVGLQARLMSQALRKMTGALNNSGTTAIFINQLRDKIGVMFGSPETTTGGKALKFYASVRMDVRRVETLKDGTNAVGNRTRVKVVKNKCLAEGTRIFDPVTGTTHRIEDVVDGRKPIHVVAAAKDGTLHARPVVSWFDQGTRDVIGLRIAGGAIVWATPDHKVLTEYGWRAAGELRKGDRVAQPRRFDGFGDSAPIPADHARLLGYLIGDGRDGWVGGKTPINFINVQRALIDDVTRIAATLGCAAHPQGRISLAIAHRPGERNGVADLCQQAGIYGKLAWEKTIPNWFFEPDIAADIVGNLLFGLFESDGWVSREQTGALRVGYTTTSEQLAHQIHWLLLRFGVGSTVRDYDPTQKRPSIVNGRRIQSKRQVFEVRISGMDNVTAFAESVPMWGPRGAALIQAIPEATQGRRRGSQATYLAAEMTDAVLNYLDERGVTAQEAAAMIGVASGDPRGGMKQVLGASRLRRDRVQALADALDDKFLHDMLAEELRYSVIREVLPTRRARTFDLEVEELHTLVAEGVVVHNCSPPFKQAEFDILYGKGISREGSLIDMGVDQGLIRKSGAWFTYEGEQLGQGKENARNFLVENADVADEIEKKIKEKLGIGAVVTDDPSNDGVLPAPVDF

[8] = inhibitors of SNCA 5'UTR-driven reporter translation, confirmation, H4 neuroglioma cells, luminescence (AID 1988); assay type: functional, cell-based
[9] = molecular target: T4, Aminopeptidase N (Plasmodium falciparum FcB1/Columbia, UniProt O96935); test: P. falciparum M1AAP inhibitors, biochemical, fluorogenic H-Leu-NHMec substrate, 1536-well (AID 1445); design: species or system Plasmodium falciparum 3D7, 3D7
T4 sequence (O96935 whole entry): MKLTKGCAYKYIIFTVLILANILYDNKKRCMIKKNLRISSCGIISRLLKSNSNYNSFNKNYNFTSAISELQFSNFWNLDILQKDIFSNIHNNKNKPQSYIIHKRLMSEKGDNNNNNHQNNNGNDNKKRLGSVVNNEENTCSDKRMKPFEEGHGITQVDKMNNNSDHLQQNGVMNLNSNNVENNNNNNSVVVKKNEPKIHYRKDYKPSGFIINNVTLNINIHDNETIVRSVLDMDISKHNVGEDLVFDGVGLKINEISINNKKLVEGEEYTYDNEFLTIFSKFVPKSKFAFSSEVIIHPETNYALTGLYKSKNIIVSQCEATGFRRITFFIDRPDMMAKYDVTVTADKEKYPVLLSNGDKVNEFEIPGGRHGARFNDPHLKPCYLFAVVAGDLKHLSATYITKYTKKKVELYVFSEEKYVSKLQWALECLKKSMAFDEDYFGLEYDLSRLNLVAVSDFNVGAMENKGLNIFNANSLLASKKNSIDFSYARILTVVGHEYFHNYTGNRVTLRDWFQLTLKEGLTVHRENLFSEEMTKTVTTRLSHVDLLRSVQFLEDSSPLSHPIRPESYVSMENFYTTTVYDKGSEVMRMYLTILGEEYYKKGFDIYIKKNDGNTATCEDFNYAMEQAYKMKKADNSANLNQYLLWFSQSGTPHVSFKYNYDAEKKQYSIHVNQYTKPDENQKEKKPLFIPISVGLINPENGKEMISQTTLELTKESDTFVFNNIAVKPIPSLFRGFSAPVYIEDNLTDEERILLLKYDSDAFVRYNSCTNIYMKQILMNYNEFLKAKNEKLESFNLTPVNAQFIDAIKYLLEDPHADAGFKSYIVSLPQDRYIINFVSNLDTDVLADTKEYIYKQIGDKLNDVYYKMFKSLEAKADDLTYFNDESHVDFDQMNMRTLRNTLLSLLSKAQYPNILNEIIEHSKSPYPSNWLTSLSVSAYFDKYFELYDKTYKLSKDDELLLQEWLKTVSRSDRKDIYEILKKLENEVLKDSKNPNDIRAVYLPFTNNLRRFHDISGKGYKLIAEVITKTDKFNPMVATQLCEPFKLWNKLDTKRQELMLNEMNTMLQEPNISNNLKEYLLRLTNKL

[10] = molecular target: Large T antigen (Simian virus 40, UniProt P03070); assay type: functional, Betapolyomavirus macacae;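 note: Confirmatory-stage PubChem screen for compounds that inhibit SV40 T antigen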
[11] = molecular target: T5, Mucolipin-3 (Homo sapiens, UniProt Q8TDD5); test: Dose response cell-based high-throughput screening assay for agonists of the transient receptor potential channel ML3 (TRPML3). [Related pubchem assays: 1526, 1424, 1448 ]; assay type: functional
T5 sequence (Q8TDD5 whole entry): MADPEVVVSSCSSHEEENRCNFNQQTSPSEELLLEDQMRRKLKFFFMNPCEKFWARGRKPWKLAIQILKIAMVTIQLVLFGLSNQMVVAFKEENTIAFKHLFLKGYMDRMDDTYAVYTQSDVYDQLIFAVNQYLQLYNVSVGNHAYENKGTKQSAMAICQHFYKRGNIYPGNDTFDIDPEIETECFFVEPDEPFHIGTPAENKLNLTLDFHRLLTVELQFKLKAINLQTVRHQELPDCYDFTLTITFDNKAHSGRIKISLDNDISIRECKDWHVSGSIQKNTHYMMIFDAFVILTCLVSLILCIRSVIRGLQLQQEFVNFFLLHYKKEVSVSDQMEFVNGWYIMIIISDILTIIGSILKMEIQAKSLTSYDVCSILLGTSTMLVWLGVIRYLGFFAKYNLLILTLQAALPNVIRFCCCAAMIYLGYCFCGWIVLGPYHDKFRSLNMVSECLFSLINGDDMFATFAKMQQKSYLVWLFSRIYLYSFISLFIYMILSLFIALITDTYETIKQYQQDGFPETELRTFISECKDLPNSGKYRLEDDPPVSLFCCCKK

[12] = molecular target: T6, Calpain-2 catalytic subunit (Sus scrofa, UniProt P43367); test: pig calpain II inhibitor potency, dose response, biochemical, fluorogenic peptide substrate (AID 1420); assay type: functional
T6 sequence (P43367 whole entry): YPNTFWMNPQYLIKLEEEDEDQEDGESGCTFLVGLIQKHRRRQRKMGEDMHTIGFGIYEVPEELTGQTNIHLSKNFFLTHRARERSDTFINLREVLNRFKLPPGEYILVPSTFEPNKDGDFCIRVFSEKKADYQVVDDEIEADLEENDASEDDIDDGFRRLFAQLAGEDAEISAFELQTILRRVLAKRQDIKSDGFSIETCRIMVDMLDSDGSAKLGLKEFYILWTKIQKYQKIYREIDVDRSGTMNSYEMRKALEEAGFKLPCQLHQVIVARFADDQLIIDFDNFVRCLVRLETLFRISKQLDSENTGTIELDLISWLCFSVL

[13] = molecular target: Ion channel NompC (Danio rerio, UniProt Q7T1G6); test: Fluorescence counterscreen assay for TRPML3 agonists: dose response cell-based high-throughput screening assay to identify agonists of the transient receptor potential channel N1 (TRPN1). [Related pubchem assays: 1526, 1424, 1448 ]; assay type: functional
[14] = molecular target: Cytochrome P450 3A4 (Homo sapiens, UniProt P08684); settings: Potency;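 note: confirmatory qHTS run detecting inhibitors and substrates of CYP3A4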
[15] = molecular target: Cytochrome P450 2D6 (Homo sapiens, UniProt P10635); test: qHTS Assay for Inhibitors and Substrates of Cytochrome P450 2D6. [Related pubchem assays: 410 ]; assay type: ADME; settings: read-out: Potency
Cytochrome P450 2D6, sequence (P10635 whole entry): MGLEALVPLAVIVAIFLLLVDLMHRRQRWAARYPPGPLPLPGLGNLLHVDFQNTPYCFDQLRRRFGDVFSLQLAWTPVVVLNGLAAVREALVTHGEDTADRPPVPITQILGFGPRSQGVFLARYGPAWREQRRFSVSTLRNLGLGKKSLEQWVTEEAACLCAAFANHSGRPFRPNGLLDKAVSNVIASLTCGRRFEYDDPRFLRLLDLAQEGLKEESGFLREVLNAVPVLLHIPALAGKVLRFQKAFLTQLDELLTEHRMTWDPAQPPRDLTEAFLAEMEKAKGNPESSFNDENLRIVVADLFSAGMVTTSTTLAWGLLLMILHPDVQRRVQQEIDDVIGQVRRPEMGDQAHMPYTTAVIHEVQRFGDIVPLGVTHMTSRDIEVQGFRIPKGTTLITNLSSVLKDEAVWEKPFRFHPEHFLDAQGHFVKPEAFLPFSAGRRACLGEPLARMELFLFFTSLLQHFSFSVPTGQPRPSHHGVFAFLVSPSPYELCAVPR

Cytochrome P450 3A4, sequence (P08684 whole entry): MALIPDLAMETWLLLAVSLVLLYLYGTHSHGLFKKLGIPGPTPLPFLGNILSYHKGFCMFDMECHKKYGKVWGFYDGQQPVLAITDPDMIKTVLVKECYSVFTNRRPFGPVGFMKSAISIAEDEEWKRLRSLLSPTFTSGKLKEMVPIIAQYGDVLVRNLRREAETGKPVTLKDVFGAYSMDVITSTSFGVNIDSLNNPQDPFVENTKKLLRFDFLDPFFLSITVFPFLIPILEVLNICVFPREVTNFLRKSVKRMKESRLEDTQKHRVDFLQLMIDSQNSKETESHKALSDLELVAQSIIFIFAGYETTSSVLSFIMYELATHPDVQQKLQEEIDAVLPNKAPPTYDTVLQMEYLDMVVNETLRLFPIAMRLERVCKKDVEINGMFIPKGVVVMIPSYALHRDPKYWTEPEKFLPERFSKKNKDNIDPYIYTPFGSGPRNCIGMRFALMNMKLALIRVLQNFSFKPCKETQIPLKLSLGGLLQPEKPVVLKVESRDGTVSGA
Ion channel NompC, sequence (Q7T1G6 whole entry): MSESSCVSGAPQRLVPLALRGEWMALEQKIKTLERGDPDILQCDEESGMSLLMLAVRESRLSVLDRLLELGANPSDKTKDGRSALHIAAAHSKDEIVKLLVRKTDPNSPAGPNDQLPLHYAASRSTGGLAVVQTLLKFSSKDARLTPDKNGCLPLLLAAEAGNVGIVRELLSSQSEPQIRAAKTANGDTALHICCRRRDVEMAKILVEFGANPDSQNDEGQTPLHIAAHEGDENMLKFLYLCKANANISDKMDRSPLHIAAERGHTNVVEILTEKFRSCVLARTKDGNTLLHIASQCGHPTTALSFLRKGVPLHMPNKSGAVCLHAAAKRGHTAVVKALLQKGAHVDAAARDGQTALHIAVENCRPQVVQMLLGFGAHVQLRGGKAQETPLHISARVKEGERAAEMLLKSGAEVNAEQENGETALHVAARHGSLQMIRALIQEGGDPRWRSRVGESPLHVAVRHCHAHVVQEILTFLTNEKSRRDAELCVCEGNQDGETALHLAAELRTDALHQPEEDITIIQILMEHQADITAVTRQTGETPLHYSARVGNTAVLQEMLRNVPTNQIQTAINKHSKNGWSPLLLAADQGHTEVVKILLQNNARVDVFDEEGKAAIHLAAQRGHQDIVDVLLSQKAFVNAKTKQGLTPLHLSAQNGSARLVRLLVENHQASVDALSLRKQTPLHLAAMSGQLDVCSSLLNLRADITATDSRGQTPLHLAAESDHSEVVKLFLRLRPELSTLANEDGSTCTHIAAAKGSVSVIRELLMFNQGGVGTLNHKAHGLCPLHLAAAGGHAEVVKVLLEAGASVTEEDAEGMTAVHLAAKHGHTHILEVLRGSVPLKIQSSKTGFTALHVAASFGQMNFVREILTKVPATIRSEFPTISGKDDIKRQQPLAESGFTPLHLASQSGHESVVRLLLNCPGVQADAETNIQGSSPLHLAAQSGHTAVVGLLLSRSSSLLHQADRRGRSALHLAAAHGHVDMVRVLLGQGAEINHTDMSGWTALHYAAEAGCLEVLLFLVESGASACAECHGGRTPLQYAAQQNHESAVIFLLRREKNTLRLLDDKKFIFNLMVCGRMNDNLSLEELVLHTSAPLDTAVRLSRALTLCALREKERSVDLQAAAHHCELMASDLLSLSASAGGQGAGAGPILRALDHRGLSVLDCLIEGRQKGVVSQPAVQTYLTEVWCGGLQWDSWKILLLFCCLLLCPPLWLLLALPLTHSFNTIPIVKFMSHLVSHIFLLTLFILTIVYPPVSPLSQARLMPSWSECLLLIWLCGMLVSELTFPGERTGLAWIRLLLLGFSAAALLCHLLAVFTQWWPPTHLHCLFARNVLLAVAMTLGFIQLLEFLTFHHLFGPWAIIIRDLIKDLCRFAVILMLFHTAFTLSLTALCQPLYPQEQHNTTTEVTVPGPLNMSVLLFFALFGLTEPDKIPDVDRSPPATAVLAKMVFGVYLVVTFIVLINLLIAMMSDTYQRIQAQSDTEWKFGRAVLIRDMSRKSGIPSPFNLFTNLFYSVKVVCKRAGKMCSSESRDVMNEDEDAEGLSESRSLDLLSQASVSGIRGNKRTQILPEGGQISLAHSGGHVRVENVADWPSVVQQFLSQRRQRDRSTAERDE
Large T antigen, sequence (P03070 whole entry): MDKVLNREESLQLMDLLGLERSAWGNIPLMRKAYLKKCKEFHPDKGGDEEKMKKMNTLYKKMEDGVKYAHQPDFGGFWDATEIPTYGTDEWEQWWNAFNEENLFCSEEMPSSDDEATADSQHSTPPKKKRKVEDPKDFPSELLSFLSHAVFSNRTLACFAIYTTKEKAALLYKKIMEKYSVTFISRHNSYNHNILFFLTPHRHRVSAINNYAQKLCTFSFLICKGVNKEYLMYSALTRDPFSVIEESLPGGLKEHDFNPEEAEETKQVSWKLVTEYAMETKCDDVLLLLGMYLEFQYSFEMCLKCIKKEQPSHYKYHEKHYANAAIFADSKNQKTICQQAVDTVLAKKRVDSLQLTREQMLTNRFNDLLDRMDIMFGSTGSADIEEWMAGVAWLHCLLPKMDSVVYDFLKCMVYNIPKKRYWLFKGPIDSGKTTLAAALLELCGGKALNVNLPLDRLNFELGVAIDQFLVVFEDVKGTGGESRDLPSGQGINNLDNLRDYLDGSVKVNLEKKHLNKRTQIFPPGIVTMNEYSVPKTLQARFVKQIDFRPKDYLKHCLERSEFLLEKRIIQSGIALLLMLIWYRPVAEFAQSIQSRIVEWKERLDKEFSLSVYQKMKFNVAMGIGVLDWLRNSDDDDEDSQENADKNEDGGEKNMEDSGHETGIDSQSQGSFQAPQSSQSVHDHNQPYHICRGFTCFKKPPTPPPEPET
DNA dC->dU-editing enzyme APOBEC-3G, sequence (Q9HC16 whole entry): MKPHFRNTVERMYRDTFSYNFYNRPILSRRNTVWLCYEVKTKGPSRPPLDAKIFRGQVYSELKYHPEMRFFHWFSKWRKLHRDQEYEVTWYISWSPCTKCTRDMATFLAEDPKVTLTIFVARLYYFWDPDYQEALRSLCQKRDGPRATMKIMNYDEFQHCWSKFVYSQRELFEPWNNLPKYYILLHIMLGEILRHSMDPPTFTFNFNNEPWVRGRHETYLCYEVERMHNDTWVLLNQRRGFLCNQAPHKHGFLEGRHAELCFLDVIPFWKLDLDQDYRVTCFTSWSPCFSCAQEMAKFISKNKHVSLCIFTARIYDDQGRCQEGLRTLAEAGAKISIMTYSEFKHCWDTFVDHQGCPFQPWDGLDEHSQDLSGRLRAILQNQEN

COc1ncnc2c1oc1nc(C(C)C)c3c(c12)CC(C)(C)OC3
IC50 [1]: 11.7 µM (active)

O=C1c2n[nH]c(-c3ccccc3O)c2C(c2ccc(F)cc2)N1CC1CCCO1 (stereo not given)
EC50 [2]: > 50 µM (active)

COc1ccccc1C(=O)Nc1nnc(-c2ccc(Cl)cc2)o1
EC50 [2]: > 50 µM (active)

CCn1c(N)c(C(=O)NCC2CCCO2)sc1=S (stereo not given)
IC50 [3]: 66.6 µM (active)

Cc1cccc(OCCSc2nnc(-c3ccoc3C)n2C)c1
EC50 [2]: > 50 µM (active)

CCOc1cc(/C=C(/C#N)C(=O)Nc2ccc(O)cc2)cc(Br)c1O
EC50 [4]: 9.71 µM (inconclusive) | EC50 [5]: 9.51 µM (active) | AC50 [6]: > 380 µM (inactive) | EC50 [7]: 3.28 µM (active) | EC50 [8]: 7.65 µM (active) | IC50 [9]: 78.7 µM (active)

COc1cc(/C=C2\SC(=S)N(C(C(=O)O)c3ccccc3)C2=O)ccc1O (stereo not given)
IC50 [9]: 38.1 µM (active) | IC50 [10]: 11.6 µM (active)

COc1ccc(OC)c(C(c2c(O)oc3ccccc3c2=O)c2c(C)n(C)n(-c3ccccc3)c2=O)c1 (stereo not given)
IC50 [9]: 71 µM (active)

COc1ccc2c(c1)C(C)CC(C)(C)N2C(=O)CSc1nc2ccccc2s1 (stereo not given)
EC50 [11]: 2.63 µM (active) | IC50 [12]: 3.08 µM (not active) | EC50 [13]: > 29.9 µM (not active)

OCC1OC(c2ccc3c(c2)OCO3)C=CC1Oc1ccc(C2CCCC2)cc1 (stereo not given)
AC50 [14]: 2 µM (inconclusive) | AC50 [15]: 3.16 µM (inconclusive)

CC(C)c1nc2oc3c(O)ncnc3c2c2c1COC(C)(C)C2
IC50 [1]: 8.22 µM (active)
